According to US20150105252A1, “SUBSTITUTED PYRAZOLES AS HERBICIDES” (E I DU PONT DE NEMOURS AND COMPANY, priority 2013, published 2015):

What was measured:
barnyardgrass [1] = test: Test C flooded paddy test; type: in vivo, Echinochloa crus-galli; details: Flood
Source text: (§1) At time of treatment, test pots were flooded to 3 cm above the soil surface, treated by application of test compounds directly to the paddy water, and then maintained at that water depth for the duration of the test. Treated plants and controls were maintained in a greenhouse for 13 to 15 days, after which time all species were compared to controls and visually evaluated. […] A dash (-) response means no test result.

wheat [2] = test: Test A postemergence; type: in vivo, Triticum aestivum
Summary of the method: (§2)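 Growth medium: loam soil blended with sand. Preemergence treatment used a directed soil spray right after planting; postemergence treatment targeted seedlings at one to two leaves (2–10 cm height). Response was judged by eye relative to untreated plants about 10 days later on a 0–100 control scale.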

barnyardgrass [3] = test: Test A postemergence; type: in vivo, Echinochloa crus-galli; details: Postemergence
Summary of the method: as §2

morningglory [4] = test: Test A postemergence; type: in vivo, Ipomoea spp.
Summary of the method: as §2

crabgrass, large [5] = test: Test A postemergence; type: in vivo, Digitaria sanguinalis
Summary of the method: as §2

pigweed [6] = test: Test A postemergence; type: in vivo, Amaranthus retroflexus
Summary of the method: as §2

crabgrass, large [7] = test: Test A preemergence; type: in vivo, Digitaria sanguinalis; details: 0 to 100 scale
Summary of the method: as §2

corn [8] = test: Test A postemergence; type: in vivo, Zea mays
Summary of the method: as §2

corn [9] = test: Test A preemergence; type: in vivo, Zea mays; details: 0 to 100 scale
Summary of the method: as §2

sedge, umbrella = test: Test C flooded paddy test; type: in vivo, Cyperus difformis; details: Flood
Source text: as §1

barnyardgrass [10] = test: Test A preemergence; type: in vivo, Echinochloa crus-galli; details: 0 to 100 scale
Summary of the method: as §2

ducksalad = test: Test C flooded paddy test; type: in vivo, Heteranthera limosa; details: Flood
Source text: as §1

foxtail, giant [11] = test: Test A preemergence; type: in vivo, Setaria faberii; details: 0 to 100 scale
Summary of the method: as §2

velvetleaf [12] = test: Test A preemergence; type: in vivo, Abutilon theophrasti; details: 0 to 100 scale
Summary of the method: as §2

pigweed [13] = test: Test A preemergence; type: in vivo, Amaranthus retroflexus; details: 0 to 100 scale
Summary of the method: as §2

rice = test: Test C flooded paddy test; type: in vivo, Oryza sativa; details: Flood
Source text: as §1

foxtail, giant [14] = test: Test A postemergence; type: in vivo, Setaria faberii
Summary of the method: as §2

wheat [15] = test: Test A preemergence; type: in vivo, Triticum aestivum; details: 0 to 100 scale
Summary of the method: as §2

morningglory [16] = test: Test A preemergence; type: in vivo, Ipomoea spp.; details: 0 to 100 scale
Summary of the method: as §2

velvetleaf [17] = test: Test A postemergence; type: in vivo, Abutilon theophrasti
Summary of the method: as §2

[18] = 31 g ai/ha, scale 0 to 100 (0 no effect, 100 complete control)
[19] = 62 g ai/ha, scale 0 to 100 (0 no effect, 100 complete control)
[20] = Postemergence, 1000 g ai/ha, visual rating after approx. 10 days, 0 to 100 scale (0 no effect, 100 complete control)
[21] = 1000 g ai/ha, visual rating after approx. 10 days, 0 to 100 scale (0 no effect, 100 complete control)
[22] = Preemergence, 1000 g ai/ha, 0 no effect, 100 complete control
[23] = Postemergence, 500 g ai/ha, visual rating after approx. 10 days, 0 to 100 scale (0 no effect, 100 complete control)
[24] = postemergence, 125 g ai/ha, about 10 days, visual rating on 0 to 100 scale (0 no effect, 100 complete control)
[25] = 125 g ai/ha, 0 to 100 scale, 0 no effect, 100 complete control
[26] = 500 g ai/ha, visual rating after approx. 10 days, 0 to 100 scale (0 no effect, 100 complete control)
[27] = Preemergence, 500 g ai/ha, 0 no effect, 100 complete control
[28] = preemergence, 125 g ai/ha, visual injury, approx. 10 days

CCCc1cc(C(=O)NCC(F)(F)F)nn1Cc1cccc(OC(F)(F)F)c1 [Compound 32]
100: Morningglory plant response rating (morningglory [4]; [20]) | Pigweed plant response rating (pigweed [6]; [20]) | Crabgrass, Large plant response rating (crabgrass, large [7]; [22]) | Foxtail, Giant plant response rating (foxtail, giant [11]; [22]) | Pigweed plant response rating (pigweed [13]; [22])
50: Plant response rating, Sedge, Umbrella (sedge, umbrella; 125 g ai/ha, scale 0 to 100) | Plant response rating, Ducksalad (ducksalad; 125 g ai/ha, scale 0 to 100) | Foxtail, Giant plant response rating (foxtail, giant [14]; [20]) | Morningglory plant response rating (morningglory [16]; [22])
0: Plant response rating, Barnyardgrass (barnyardgrass [1]; [18]) | Plant response rating, Barnyardgrass (barnyardgrass [1]; [19]) | Plant response rating, Barnyardgrass (barnyardgrass [1]; 125 g ai/ha, scale 0 to 100) | Plant response rating, Barnyardgrass (barnyardgrass [1]; 250 g ai/ha, scale 0 to 100) | Corn plant response rating (corn [9]; [22]) | Plant response rating, Rice (rice; [18]) | Plant response rating, Rice (rice; [19]) | Plant response rating, Rice (rice; 125 g ai/ha, scale 0 to 100) | Plant response rating, Rice (rice; 250 g ai/ha, scale 0 to 100) | Wheat plant response rating (wheat [15]; [22])
30: Corn plant response rating (corn [8]; [20]) | Plant response rating, Sedge, Umbrella (sedge, umbrella; [19]) | Velvetleaf plant response rating (velvetleaf [12]; [22])
80: Plant response rating, Sedge, Umbrella (sedge, umbrella; 250 g ai/ha, scale 0 to 100) | Velvetleaf plant response rating (velvetleaf [17]; [20])
10: Plant response rating, Ducksalad (ducksalad; [18])
70: Crabgrass, Large plant response rating (crabgrass, large [5]; [20]) | Barnyardgrass plant response rating (barnyardgrass [10]; [22]) | Plant response rating, Ducksalad (ducksalad; 250 g ai/ha, scale 0 to 100)
40: Barnyardgrass plant response rating (barnyardgrass [3]; [21])
20: Wheat plant response rating (wheat [2]; [20]) | Plant response rating, Sedge, Umbrella (sedge, umbrella; [18]) | Plant response rating, Ducksalad (ducksalad; [19])

CCCNC(=O)c1cc(CC)n(Cc2cccc(C(F)(F)F)c2)n1 [Compound 16]
60: Barnyardgrass plant response rating (barnyardgrass [3]; [21])
80: Crabgrass, Large plant response rating (crabgrass, large [5]; [20]) | Foxtail, Giant plant response rating (foxtail, giant [14]; [20])
30: Velvetleaf plant response rating (velvetleaf [12]; [22])
20: Plant response rating, Barnyardgrass (barnyardgrass [1]; 250 g ai/ha, scale 0 to 100)
50: Wheat plant response rating (wheat [2]; [20]) | Corn plant response rating (corn [8]; [20]) | Corn plant response rating (corn [9]; [22]) | Plant response rating, Ducksalad (ducksalad; [18]) | Wheat plant response rating (wheat [15]; [22])
70: Plant response rating, Sedge, Umbrella (sedge, umbrella; [18])
90: Pigweed plant response rating (pigweed [6]; [20]) | Barnyardgrass plant response rating (barnyardgrass [10]; [22])
100: Morningglory plant response rating (morningglory [4]; [20]) | Crabgrass, Large plant response rating (crabgrass, large [7]; [22]) | Plant response rating, Sedge, Umbrella (sedge, umbrella; 125 g ai/ha, scale 0 to 100) | Plant response rating, Sedge, Umbrella (sedge, umbrella; 250 g ai/ha, scale 0 to 100) | Plant response rating, Ducksalad (ducksalad; 250 g ai/ha, scale 0 to 100) | Foxtail, Giant plant response rating (foxtail, giant [11]; [22]) | Pigweed plant response rating (pigweed [13]; [22]) | Morningglory plant response rating (morningglory [16]; [22]) | Velvetleaf plant response rating (velvetleaf [17]; [20])
95: Plant response rating, Ducksalad (ducksalad; 125 g ai/ha, scale 0 to 100)
85: Plant response rating, Sedge, Umbrella (sedge, umbrella; [19]) | Plant response rating, Ducksalad (ducksalad; [19])
0: Plant response rating, Barnyardgrass (barnyardgrass [1]; [18]) | Plant response rating, Barnyardgrass (barnyardgrass [1]; [19]) | Plant response rating, Barnyardgrass (barnyardgrass [1]; 125 g ai/ha, scale 0 to 100) | Plant response rating, Rice (rice; [18]) | Plant response rating, Rice (rice; [19])
25: Plant response rating, Rice (rice; 125 g ai/ha, scale 0 to 100) | Plant response rating, Rice (rice; 250 g ai/ha, scale 0 to 100)

Cc1cc(C(=O)NCC(F)(F)F)nn1Cc1cccc(OC(F)(F)F)c1 [Compound 5]
100: Morningglory plant response rating (morningglory [4]; [23]) | Crabgrass, Large plant response rating (crabgrass, large [7]; [27]) | Pigweed plant response rating (pigweed [13]; [27])
10: Wheat plant response rating (wheat [2]; [23]) | Barnyardgrass plant response rating (barnyardgrass [3]; [25]) | Crabgrass, Large plant response rating (crabgrass, large [5]; [24]) | Corn plant response rating (corn [8]; [24]) | Foxtail, Giant plant response rating (foxtail, giant [11]; [28]) | Pigweed plant response rating (pigweed [13]; [28]) | Foxtail, Giant plant response rating (foxtail, giant [14]; [24])
70: Crabgrass, Large plant response rating (crabgrass, large [5]; [23]) | Foxtail, Giant plant response rating (foxtail, giant [11]; [27])
90: Pigweed plant response rating (pigweed [6]; [23])
40: Barnyardgrass plant response rating (barnyardgrass [3]; [26]) | Morningglory plant response rating (morningglory [4]; [24]) | Corn plant response rating (corn [8]; [23]) | Morningglory plant response rating (morningglory [16]; [27])
20: Crabgrass, Large plant response rating (crabgrass, large [7]; [28]) | Velvetleaf plant response rating (velvetleaf [12]; [27]) | Velvetleaf plant response rating (velvetleaf [17]; [24])
60: Barnyardgrass plant response rating (barnyardgrass [10]; [27]) | Plant response rating, Ducksalad (ducksalad; 250 g ai/ha, scale 0 to 100) | Foxtail, Giant plant response rating (foxtail, giant [14]; [23]) | Velvetleaf plant response rating (velvetleaf [17]; [23])
0: Plant response rating, Barnyardgrass (barnyardgrass [1]; [19]) | Plant response rating, Barnyardgrass (barnyardgrass [1]; 250 g ai/ha, scale 0 to 100) | Wheat plant response rating (wheat [2]; [24]) | Corn plant response rating (corn [9]; [27]) | Corn plant response rating (corn [9]; [28]) | Barnyardgrass plant response rating (barnyardgrass [10]; [28]) | Plant response rating, Ducksalad (ducksalad; [19]) | Velvetleaf plant response rating (velvetleaf [12]; [28]) | Plant response rating, Rice (rice; [19]) | Plant response rating, Rice (rice; 250 g ai/ha, scale 0 to 100) | Wheat plant response rating (wheat [15]; [28]) | Morningglory plant response rating (morningglory [16]; [28])
75: Plant response rating, Sedge, Umbrella (sedge, umbrella; 250 g ai/ha, scale 0 to 100)
50: Pigweed plant response rating (pigweed [6]; [24]) | Plant response rating, Sedge, Umbrella (sedge, umbrella; [19])

Cc1cc(C(=O)NCC(F)(F)F)nn1Cc1cc(F)cc(C(F)(F)F)c1 [Compound 13]
0: Wheat plant response rating (wheat [2]; [23]) | Wheat plant response rating (wheat [2]; [24]) | Barnyardgrass plant response rating (barnyardgrass [3]; [25]) | Corn plant response rating (corn [8]; [23]) | Corn plant response rating (corn [8]; [24]) | Corn plant response rating (corn [9]; [27]) | Corn plant response rating (corn [9]; [28]) | Barnyardgrass plant response rating (barnyardgrass [10]; [27]) | Barnyardgrass plant response rating (barnyardgrass [10]; [28]) | Foxtail, Giant plant response rating (foxtail, giant [11]; [28]) | Velvetleaf plant response rating (velvetleaf [12]; [27]) | Velvetleaf plant response rating (velvetleaf [12]; [28]) | Foxtail, Giant plant response rating (foxtail, giant [14]; [24]) | Wheat plant response rating (wheat [15]; [28]) | Morningglory plant response rating (morningglory [16]; [28]) | Velvetleaf plant response rating (velvetleaf [17]; [24])
40: Pigweed plant response rating (pigweed [6]; [24])
30: Crabgrass, Large plant response rating (crabgrass, large [5]; [23])
50: Morningglory plant response rating (morningglory [4]; [24]) | Foxtail, Giant plant response rating (foxtail, giant [11]; [27])
100: Morningglory plant response rating (morningglory [4]; [23])
20: Barnyardgrass plant response rating (barnyardgrass [3]; [26]) | Crabgrass, Large plant response rating (crabgrass, large [5]; [24]) | Foxtail, Giant plant response rating (foxtail, giant [14]; [23]) | Velvetleaf plant response rating (velvetleaf [17]; [23])
10: Crabgrass, Large plant response rating (crabgrass, large [7]; [28])
70: Crabgrass, Large plant response rating (crabgrass, large [7]; [27])
60: Pigweed plant response rating (pigweed [6]; [23])
90: Pigweed plant response rating (pigweed [13]; [27])
